Data published in ChEMBL document CHEMBL5352398 (Eur J Med Chem, 2022).
Activity calls are given as the source filed them. No cut-off for these calls is given here.

Tests used:
HepG2 [1] = assay: Cytotoxicity against human HepG2 cells assessed as reduction in cell viability at 100 uM incubated for 72 hrs by MTT assay; format: toxicity, cell-based; conditions: hepg2, 72 h
[2] = target: T1, Solute carrier family 2, facilitated glucose transporter member 9 (Mus musculus, UniProt Q3T9X0); assay: Inhibition of mouse GLUT9 transfected in human HEK293 cells assessed as inhibition of uric acid induced current by cell patch-clamp assay; format: cell-based
T1 sequence (Q3T9X0 whole entry): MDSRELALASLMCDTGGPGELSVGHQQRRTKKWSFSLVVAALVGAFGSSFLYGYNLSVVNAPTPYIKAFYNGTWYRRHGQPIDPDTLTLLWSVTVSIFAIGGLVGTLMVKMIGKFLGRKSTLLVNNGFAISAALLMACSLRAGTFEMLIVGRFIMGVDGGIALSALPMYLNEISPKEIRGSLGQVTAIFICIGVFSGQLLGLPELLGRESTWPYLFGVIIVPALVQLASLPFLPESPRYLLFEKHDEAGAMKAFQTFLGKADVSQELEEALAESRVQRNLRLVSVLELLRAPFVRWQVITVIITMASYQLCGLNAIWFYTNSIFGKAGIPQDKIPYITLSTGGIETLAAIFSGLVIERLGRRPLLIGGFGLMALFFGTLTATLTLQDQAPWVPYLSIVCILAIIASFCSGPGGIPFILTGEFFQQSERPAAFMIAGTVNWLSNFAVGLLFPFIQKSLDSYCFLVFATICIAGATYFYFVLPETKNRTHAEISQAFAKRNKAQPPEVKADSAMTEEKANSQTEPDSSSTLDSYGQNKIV

[3] = target: T2, Broad substrate specificity ATP-binding cassette transporter ABCG2 (Homo sapiens, UniProt Q9UNQ0); assay: Inhibition of ABCG2 (unknown origin) transfected in HEK293 cell membrane vesicle assessed as inhibition of 14C-uric acid uptake incubated for 15 mins in presence of ATP by liquid scintillation counter analysis; format: cell membranes
T2 sequence (Q9UNQ0 whole entry): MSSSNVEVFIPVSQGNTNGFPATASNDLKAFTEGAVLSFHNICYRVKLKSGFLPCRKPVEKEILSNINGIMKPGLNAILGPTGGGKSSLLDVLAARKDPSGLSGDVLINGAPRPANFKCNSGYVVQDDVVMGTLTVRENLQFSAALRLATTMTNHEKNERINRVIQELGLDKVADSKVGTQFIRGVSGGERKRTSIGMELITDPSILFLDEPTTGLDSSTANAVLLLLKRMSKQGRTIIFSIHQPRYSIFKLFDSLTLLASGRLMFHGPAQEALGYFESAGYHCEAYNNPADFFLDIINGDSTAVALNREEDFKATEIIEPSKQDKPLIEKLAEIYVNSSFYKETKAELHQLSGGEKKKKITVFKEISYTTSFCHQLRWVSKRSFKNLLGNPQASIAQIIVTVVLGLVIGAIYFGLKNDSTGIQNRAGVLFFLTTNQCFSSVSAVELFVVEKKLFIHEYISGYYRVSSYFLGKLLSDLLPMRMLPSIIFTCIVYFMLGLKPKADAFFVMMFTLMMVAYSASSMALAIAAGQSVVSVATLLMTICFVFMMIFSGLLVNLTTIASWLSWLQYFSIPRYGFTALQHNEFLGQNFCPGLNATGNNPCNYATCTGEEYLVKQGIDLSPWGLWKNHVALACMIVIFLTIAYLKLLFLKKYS

[4] = Tmax in Sprague-Dawley rat at 5 mg/kg, po and measured upto 24 hrs by LC-MS/MS analysis; format: ADME, organism-based; conditions: in vivo
[5] = Tmax in Sprague-Dawley rat at 5 mg/kg, iv and measured upto 24 hrs by LC-MS/MS analysis; format: ADME, organism-based; conditions: in vivo
[6] = Cmax in Sprague-Dawley rat at 5 mg/kg, po and measured upto 24 hrs by LC-MS/MS analysis; format: ADME, organism-based; design: dose 5 mg/kg, time < 24 hrs, route po; conditions: in vivo
[7] = Cmax in Sprague-Dawley rat at 5 mg/kg, iv and measured upto 24 hrs by LC-MS/MS analysis; format: ADME, organism-based; design: time < 24 hrs, dose 5 mg/kg, route iv; conditions: in vivo
[8] = Half life in Sprague-Dawley rat at 5 mg/kg, po and measured upto 24 hrs by LC-MS/MS analysis; format: ADME, organism-based; conditions: in vivo
[9] = Half life in Sprague-Dawley rat at 5 mg/kg, iv and measured upto 24 hrs by LC-MS/MS analysis; format: ADME, organism-based; conditions: in vivo
[10] = AUC(0 to infinity) in Sprague-Dawley rat at 5 mg/kg, po and measured upto 24 hrs by LC-MS/MS analysis; format: ADME, organism-based; design: time < 24 hrs, dose 5 mg/kg, route po; conditions: in vivo
[11] = AUC(0 to infinity) in Sprague-Dawley rat at 5 mg/kg, iv and measured upto 24 hrs by LC-MS/MS analysis; format: ADME, organism-based; design: dose 5 mg/kg, time < 24 hrs, route iv; conditions: in vivo
[12] = MRT (0 to infinity) in Sprague-Dawley rat at 5 mg/kg, po and measured upto 24 hrs by LC-MS/MS analysis; format: ADME, organism-based; conditions: in vivo
[13] = MRT (0 to infinity) in Sprague-Dawley rat at 5 mg/kg, iv and measured upto 24 hrs by LC-MS/MS analysis; format: ADME, organism-based; conditions: in vivo
[14] = Subacute toxicity in Kunming mouse assessed as lethargy at 50 mg/kg,po for 14 days; format: organism-based; conditions: in vivo, 336 h, time 14 day
[15] = Subacute toxicity in Kunming mouse assessed as clonic convulsion at 50 mg/kg,po for 14 days; format: organism-based; conditions: in vivo, 336 h, time 14 day
[16] = Subacute toxicity in Kunming mouse assessed as anorexia at 50 mg/kg,po for 14 days; format: organism-based; conditions: in vivo, 336 h, time 14 day
[17] = Subacute toxicity in Kunming mouse assessed as ruffled fur at 50 mg/kg,po for 14 days; format: organism-based; conditions: in vivo, 336 h, time 14 day
[18] = Hepatotoxicity in Kunming mouse assessed as increase in ALT level in serum at 50 mg/kg,po for 14 days in presence of BSO; format: toxicity, organism-based; conditions: in vivo, 336 h, time 14 day
[19] = Renal toxicity in Kunming mouse assessed as effect on BUN level at 50 mg/kg,po for 14 days; format: organism-based; conditions: in vivo, 336 h, time 14 day
[20] = Hepatotoxicity in Kunming mouse assessed as reduction in serum GSH level at 50 mg/kg, ip and incubated for 1 hr relative to control; format: toxicity, organism-based; design: scale not given: the % may be the effect or the level left; conditions: in vivo
[21] = Toxicity in Kunming mouse assessed as irregular cell arrangements at 50 mg/kg, po and measured after 14 days by HE staining based microscopy; format: organism-based; conditions: in vivo, 336 h, time 14 day
[22] = Toxicity in Kunming mouse assessed as appearance of normal tubular structure in kidney at 50 mg/kg, po administered and measured after 14 days by HE staining; format: organism-based; conditions: in vivo, 336 h, time 14 day
[23] = Toxicity in Kunming mouse assessed as appearance of normal glomerulus cells in kidney at 50 mg/kg, po administered and measured after 14 days by HE staining; format: organism-based; conditions: in vivo, 336 h, time 14 day
Mus musculus = assay: Anti-hyperuricemic activity against potassium oxonate induced hyperuricemia in Kunming mouse model assessed as decrease in serum urate level at 2 mg/kg, po and measured after 3 hrs; format: functional, organism-based
HepG2 [24] = assay: Cytotoxicity against human HepG2 cells assessed as reduction in cell viability upto 400 uM incubated for 24 hrs by MTT assay; format: toxicity, cell-based; conditions: hepg2, 24 h
[25] = Toxicity in Kunming mouse assessed as mild inflammatory infiltration in liver at 50 mg/kg, po and measured after 14 days by HE staining based microscopy; format: organism-based; conditions: in vivo, 336 h, time 14 day
[26] = Toxicity in Kunming mouse assessed as dilated vacuolization in liver at 50 mg/kg, po and measured after 14 days by HE staining based microscopy; format: organism-based; conditions: in vivo, 336 h, time 14 day
[27] = Toxicity in Kunming mouse assessed as inflammatory infiltration in kidney at 50 mg/kg, po administered and measured after 14 days by HE staining; format: organism-based; conditions: in vivo, 336 h, time 14 day

For `CCc1oc2ccccc2c1C(=O)c1cc(Br)c(O)c(Br)c1` [BENZBROMARONE], the Activity (HepG2 [1]) was “Toxic”, the IC50 [2] was over 20000 nM and the IC50 [3] was 340 nM. It also gave a Tmax [4] of 0.63 h, a Tmax [5] of 0.5 h and a Cmax [6] of 4250 ng/mL. For the same compound, the Cmax [7] was 14700 ng/mL, the half-life [8] was 1.79 h and the half-life [9] was 3.03 h. For the same compound, the AUC(0-inf) [10] was 11100 ng·h/mL, the AUC(0-inf) [11] was 30700 ng·h/mL and the MRT inf [12] was 3.48 h. For the same compound, the MRT inf [13] was 3.75 h, the Activity [14] was “Non-Toxic” and the Activity [15] was “Non-Toxic”. The Activity [16] was “Non-Toxic”, the Activity [17] was “Non-Toxic” and the Activity [18] was “Non-Toxic”. For the same compound, the Activity [19] was “Non-Toxic”, the Activity [20] was 74.29% and the Activity [21] was “Non-Toxic”. The Activity [22] was “Non-Toxic”, the Activity [23] was “Non-Toxic” and the Activity (Mus musculus) was “Active”. The Activity (HepG2 [24]) was “Toxic”, the Activity [25] was “Toxic” and the Activity [26] was “Toxic”. For the same compound, the Activity [27] was “Toxic”.
